The test system of series [1] is GST (glutathione S-transferase). Kind of series: Inhibition of Schistosoma japonicum C-terminal His6-tagged GST expressed in Escherichia coli BL21(DE3) assessed as reduction in GSH transfer activity by measuring residual activity at 150 uM using GSH/CDNB co-substrate mixture preincubated for 10 mins followed by substrate addition by colorimetric method relative to control. To be noted: probe GSH/CDNB co-substrate mixture, read-out: Activity.

For series [2] the test system is unchanged. Kind of series: Inhibition of Schistosoma japonicum C-terminal His6-tagged GST expressed in Escherichia coli BL21(DE3) assessed as reduction in GSH transfer activity by measuring residual activity at 10 mM using GSH/CDNB co-substrate mixture preincubated for 10 mins followed by substrate addition by colorimetric method relative to control. Particulars: probe GSH/CDNB co-substrate mixture, read-out: Activity.

SMILES strings stand for the structures.

`N[C@@](CF)(Cc1cnc[nH]1)C(=O)O`: in series [1], the activity at 150 µM came out at 57%. Turning to `Nc1ccc(C(=O)O)cc1` [AMINOBENZOIC ACID], in series [2], the activity at 10000 µM turned out to be 33%.
